One experiment concerns KAT-4. Description: human anaplastic thyroid carcinoma cell line inhibition. The class given is cell-based. To be noted: Homo sapiens, KAT-4. How it is done: (§1) Inhibition of human cancer cell growth was assessed using the National Cancer Institute's standard sulforhodamine B assay. After 48 hours, the plates were fixed with trichloracetic acid, stained with sulforhodamine B and read with an automated microplate reader. A growth inhibition of 50% (GI50 or the drug concentration causing a 50% reduction in the net protein increase) was calculated from optical density data with Inmunosoft software. Inhibition of the mouse leukemia P388 cells was assessed in a 10% horse serum/Fisher medium soution for 24 hours, followed by a 48 hour incubation with serial dilutions of the compounds. Cell growth inhibition (ED50) was then calculated using a Z1 Becleman/Coulter particle counter.

A further experiment concerns SW1736. The description is as above. Format: cell-based. To be noted: Homo sapiens, SW-1736. How it is done:
as §1

Another experiment relates to tubulin. Briefly: inhibition of [3H]colchicine binding to tubulin. The conditions noted are these: 1.0 μM tubulin, 5.0 μM [3H]colchicine, inhibitor at 1.0 μM, 10 minutes at 37° C. The gist of the method:
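Reaction mixtures held 1.0 μM tubulin, 5.0 μM [3H]colchicine and inhibitor at 1.0 μM, incubated 10 minutes at 37° C. The value reflects inhibition of radiolabelled colchicine binding.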

For the next experiment, the system named is T1, purified tubulin.
T1 construct: other: 10 μM tubulin, GTP 0.4 mM, 30° C., extent after 20 minutes
Briefly: inhibition of tubulin polymerization (turbidimetry). To be noted: 10 μM tubulin, GTP 0.4 mM, 30° C., extent after 20 minutes; read-out: Inhibition of polymerization IC50 ± S.D. The class given is biochemical. The method in brief:
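Drug at varying concentrations preincubated with 10 μM […] purified tubulin, chilled on ice, then 0.4 mM GTP added and polymerization followed at 30 °C by turbidity at 350 nm. Extent of reaction after 20 min was the measured parameter.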

≈ marks a conversion by molar mass, not a printed value.

The values that follow come from patent publication US20070167412A1, “HALOCOMBSTATINS AND METHODS OF SYNTHESIS THEREOF” (ARIZONA BOARD OF REGENTS, priority 2003, published 2007).

In general, GI50 refers to the concentration giving 50% growth inhibition. The low end stands for greater sensitivity of the cells, the high end for lower sensitivity of the cells. As a reminder, the IC50 is the midpoint of a concentration-inhibition curve. As to `COc1ccc(/C=C\c2cc(I)c(OC)c(OC)c2)cc1O` [Compound 14a, 3-Iodo-4,4′,5-trimethoxy-3′-hydroxy-z-stilbene], the GI50 in the experiment on KAT-4 was 0.089 to 0.14 µg/mL (≈ 0.216 to 0.34 µM); with SW1736, 2.2 µg/mL (≈ 5.34 µM). Besides, in the experiment on tubulin, the “Inhibition of colchicine binding % inhibition ± S.D.” value was found to be 84 ± 7%. Also, the IC50 in the experiment on purified tubulin was 1600 ± 200 nM.
